Assay results taken from ChEMBL document CHEMBL2434920, “Synthesis, characterization and in vitro biological evaluation of some novel 1,3,5-triazine-Schiff base conjugates as potential antimycobacterial agents” (Bioorg Med Chem Lett, 2013).
Values after ≈ are worked out from the molar mass of the structure shown.

Experiments:
[1] = tested on: Mycobacterium tuberculosis; assay: Antimycobacterial activity against Mycobacterium tuberculosis H37Rv assessed as growth inhibition after 5 days by microplate Alamar Blue assay; type: functional; settings: 120 h
Vero = assay: Cytotoxicity against African green monkey Vero cells assessed as cell viability after 72 hrs by MTT assay; type: cell-based; settings: Chlorocebus sabaeus

SMILES | MIC [1] [mg/L] | IC50 (Vero) [mg/L]
COc1nc(C)nc(/N=C/c2ccccc2)n1 | 50 (≈ 219 µM) | 
COc1nc(C)nc(/N=C/c2c3ccccc3cc3ccccc23)n1 | 50 (≈ 152 µM) | 
COc1nc(C)nc(/N=C/c2cc(Cl)cc(Br)c2O)n1 | 6.25 (≈ 17.5 µM) | > 50
CN[C@@H]1[C@H](O[C@H]2[C@H](O[C@H]3[C@H](O)[C@@H](O)[C@H](N=C(N)N)[C@@H](O)[C@@H]3N=C(N)N)O[C@@H](C)[C@]2(O)C=O)O[C@@H](CO)[C@H](O)[C@H]1O [STREPTOMYCIN] | 6.25 (≈ 10.7 µM) | > 50
COc1nc(C)nc(/N=C(\C)c2ccc3c(c2)Cc2ccccc2-3)n1 | 50 (≈ 151 µM) | 
COc1nc(C)nc(/N=C(\C)c2ccccc2O)n1 | 25 (≈ 96.8 µM) | > 50
COc1nc(C)nc(/N=C/c2ccc(C)cc2)n1 | 25 (≈ 103 µM) | > 50
COc1nc(C)nc(/N=C/c2ccc(Br)cc2)n1 | 25 (≈ 81.4 µM) | > 50
COc1nc(C)nc(/N=C/c2cccnc2)n1 | 50 (≈ 218 µM) | 
COc1nc(C)nc(/N=C(\C)c2cccnc2)n1 | 50 (≈ 206 µM) | 
COc1nc(C)nc(/N=C/c2c[nH]c3ccccc23)n1 | 50 (≈ 187 µM) | 
NC(=O)c1cnccn1 [PYRAZINAMIDE] | 3.12 (≈ 25.4 µM) | > 50
COc1nc(C)nc(/N=C(\C)c2cccs2)n1 | 25 (≈ 101 µM) | > 50
COc1nc(C)nc(/N=C(\C)c2cc(C)ccc2O)n1 | 50 (≈ 184 µM) | 
COc1nc(C)nc(/N=C(\C)c2cccc([N+](=O)[O-])c2)n1 | 25 (≈ 87 µM) | > 50
COc1nc(C)nc(/N=C(\C)c2ccc([N+](=O)[O-])cc2)n1 | 12.5 (≈ 43.5 µM) | > 50
COc1nc(C)nc(/N=C(\C)c2cccc(C)c2O)n1 | 50 (≈ 184 µM) | 
CCOc1cc(/C=N/c2nc(C)nc(OC)n2)ccc1O | 25 (≈ 86.7 µM) | > 50

SMILES | MIC [1] [mg/L] | IC50 (Vero) [mg/L]
COc1nc(C)nc(/N=C/c2cccc(Br)c2)n1 | 12.5 (≈ 40.7 µM) | > 50
COc1nc(C)nc(/N=C(\C)c2ccccc2)n1 | 50 (≈ 206 µM) | 
C=CCOc1ccc(/C=N/c2nc(C)nc(OC)n2)cc1 | 25 (≈ 87.9 µM) | > 50
COc1nc(C)nc(/N=C(\C)c2cc(O)ccc2O)n1 | 6.25 (≈ 22.8 µM) | > 50
COc1nc(C)nc(/N=C(\C)c2ccc3ccccc3c2)n1 | 50 (≈ 171 µM) | 
COc1nc(C)nc(/N=C/c2ccc[nH]2)n1 | 25 (≈ 115 µM) | > 50
COc1nc(C)nc(/N=C/c2cccc([N+](=O)[O-])c2)n1 | 50 (≈ 183 µM) | 
COc1nc(C)nc(/N=C/c2ccc(Cl)cc2Cl)n1 | 12.5 (≈ 42.1 µM) | > 50
COc1nc(C)nc(/N=C(\C)c2ccc(C)cc2)n1 | 12.5 (≈ 48.8 µM) | > 50
CC[C@@H](CO)NCCN[C@@H](CC)CO [ETHAMBUTOL] | 3.12 (≈ 15.3 µM) | > 50
COc1nc(C)nc(/N=C/c2ccc(Cl)cc2)n1 | 12.5 (≈ 47.6 µM) | > 50
COc1nc(C)nc(/N=C/c2ccc(N(C)C)cc2)n1 | 25 (≈ 92.1 µM) | > 50
COc1cccc(/C(C)=N/c2nc(C)nc(OC)n2)c1 | 12.5 (≈ 45.9 µM) | > 50
COc1ccc(/C(C)=N/c2nc(C)nc(OC)n2)cc1 | 50 (≈ 184 µM) | 
COc1nc(C)nc(/N=C/c2cc(OC)c(OC)c(OC)c2)n1 | 3.12 (≈ 9.82 µM) | > 50
COc1nc(C)nc(/N=C(\C)c2ccc(O)cc2)n1 | 25 (≈ 96.8 µM) | > 50
COc1nc(C)nc(/N=C(\C)c2ccc(O)cc2O)n1 | 25 (≈ 91.1 µM) | > 50
